Source: ChEMBL document CHEMBL6071156 (Eur J Med Chem, 2024)

Tests used:
[1] = Toxicity in C57BL/6 mouse model assessed as effect on TBILI level at 300 mg/kg/day, ip measured after 6 days post infection (reference value: 0.30 to 0.43); format: organism-based; conditions: in vivo, 144 h, time 6 day
[2] = biological target: Voltage-gated inwardly rectifying potassium channel KCNH2 (Homo sapiens, UniProt Q12809); assay: Antagonist activity at recombinant hERG expressed in CHO-K1 cells by Electrophysiology; format: toxicity, cell-based
[3] = Oral bioavailability in C57BL/6 mouse plasma at 10 mg/kg, measured upto 24 hrs by LC-MS/MS; format: ADME, organism-based; conditions: in vivo
[4] = Metabolic stability in human liver S9 fraction assessed as intrinsic clearance by HPLC-MS/MS analysis; format: ADME, subcellular
Chikungunya virus [5] = assay: Antiviral activity against CHIKV infected in C57BL/6 mouse assessed as footpad swelling at 300 mg/kg/day, ip measured after 6 days post infection (Rvb =40.9+/-12.4); format: functional; conditions: time 6 day
Chikungunya virus [6] = assay: Antiviral activity against CHIKV infected in C57BL/6 mouse assessed as virus titers at 100 mg/kg/day, ip measured after 6 days post infection (reference value: 5.3+/0.3); format: functional; conditions: time 6 day
Cytochrome P450 2C19 = Cytochrome P450 2C19 (Homo sapiens, UniProt P33261); assay: Inhibition of CYP2C19 (unknown origin); format: ADME
Chain of Cytochrome P450 2C19 (P33261 whole entry): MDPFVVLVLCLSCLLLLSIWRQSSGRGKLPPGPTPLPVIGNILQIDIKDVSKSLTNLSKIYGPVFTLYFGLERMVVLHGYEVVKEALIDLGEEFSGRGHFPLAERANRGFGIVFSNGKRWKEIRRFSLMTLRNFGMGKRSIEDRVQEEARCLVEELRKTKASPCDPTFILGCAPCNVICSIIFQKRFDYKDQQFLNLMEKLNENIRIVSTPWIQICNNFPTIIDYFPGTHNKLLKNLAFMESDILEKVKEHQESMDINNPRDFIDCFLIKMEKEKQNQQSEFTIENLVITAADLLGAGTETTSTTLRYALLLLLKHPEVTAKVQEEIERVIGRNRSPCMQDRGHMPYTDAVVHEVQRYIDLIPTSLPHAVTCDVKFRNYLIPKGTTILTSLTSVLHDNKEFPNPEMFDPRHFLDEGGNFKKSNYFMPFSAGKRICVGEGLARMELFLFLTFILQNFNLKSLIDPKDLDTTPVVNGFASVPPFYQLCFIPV

Chain of Voltage-gated inwardly rectifying potassium channel KCNH2 (Q12809 whole entry): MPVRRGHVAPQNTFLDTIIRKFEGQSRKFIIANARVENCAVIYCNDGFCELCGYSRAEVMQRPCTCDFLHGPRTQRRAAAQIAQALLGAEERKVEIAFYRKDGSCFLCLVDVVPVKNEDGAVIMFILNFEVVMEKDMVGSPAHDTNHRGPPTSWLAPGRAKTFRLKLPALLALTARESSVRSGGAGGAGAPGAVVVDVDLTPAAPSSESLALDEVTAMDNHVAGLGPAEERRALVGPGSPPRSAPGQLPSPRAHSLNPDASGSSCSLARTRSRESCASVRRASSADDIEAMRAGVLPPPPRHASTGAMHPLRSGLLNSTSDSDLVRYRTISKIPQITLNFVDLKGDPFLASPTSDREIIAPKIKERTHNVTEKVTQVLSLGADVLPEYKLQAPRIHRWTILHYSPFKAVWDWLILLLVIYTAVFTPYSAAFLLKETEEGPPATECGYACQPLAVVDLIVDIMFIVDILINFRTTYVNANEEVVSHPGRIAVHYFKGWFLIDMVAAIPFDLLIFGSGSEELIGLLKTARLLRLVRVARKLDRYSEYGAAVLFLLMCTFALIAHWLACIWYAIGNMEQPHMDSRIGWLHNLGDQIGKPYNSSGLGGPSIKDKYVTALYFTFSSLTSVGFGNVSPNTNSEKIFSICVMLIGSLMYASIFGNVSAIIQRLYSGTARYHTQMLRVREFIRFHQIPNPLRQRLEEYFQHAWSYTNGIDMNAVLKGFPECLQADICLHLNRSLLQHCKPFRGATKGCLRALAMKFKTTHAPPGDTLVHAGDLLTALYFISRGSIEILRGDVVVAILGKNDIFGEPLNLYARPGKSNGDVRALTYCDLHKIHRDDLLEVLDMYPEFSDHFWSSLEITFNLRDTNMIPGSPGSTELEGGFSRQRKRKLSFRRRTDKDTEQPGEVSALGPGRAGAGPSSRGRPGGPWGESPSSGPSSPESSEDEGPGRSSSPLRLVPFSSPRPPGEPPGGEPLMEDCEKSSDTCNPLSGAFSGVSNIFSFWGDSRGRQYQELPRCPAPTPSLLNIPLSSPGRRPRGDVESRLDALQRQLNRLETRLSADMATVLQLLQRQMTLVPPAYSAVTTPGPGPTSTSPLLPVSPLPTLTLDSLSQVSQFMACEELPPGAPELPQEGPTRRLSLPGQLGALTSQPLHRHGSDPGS

Structure (SMILES): CC1CCNc2c(C(=O)NC/C=C/S(C)(=O)=O)cccc21 (configuration not stated)
- Activity [1]: 0.34 mg/dL
- IC50 [2]: > 100 µM
- F [3]: 95.6%
- CLH [4]: 22.7 µL/min/mg
- Activity (Chikungunya virus [5]): 14.1%
- Activity (Chikungunya virus [6]): 5.8
- IC50 (Cytochrome P450 2C19): > 100 µM
